Several values for one entry are separate records, joined by “and”; a condition that tells them apart may be missing. Equal values may be shown once.
Experiments:
HeLa = settings: bulk resorufin, single well, 28.5 h, 10 µM, Bulk resorufin fluorescence
in vitro [1] = settings: human, hela cells, % viability
[2] = test system: T1, CTL2-GFP (C. trachomatis L2/434/Bu, GFP-expressing); assay: microbe, parasite or virus in culture; set-up: Intracellular C. trachomatis growth in HeLa cells, bulk GFP fluorescence relative to DMSO; settings: Chlamydia trachomatis, HeLa, 28.5 h; bulk GFP, mean of 2; read-out: % of control remaining
T1 construct: L2/434/Bu, GFP-expressing
Procedure: MICs were calculated as described above.

in vitro [3] = assay: in vitro; set-up: Viability of infected HeLa host cells, resazurin conversion, bulk resorufin fluorescence relative to DMSO; settings: human, hela cells; bulk resorufin, mean of 2
[4] = test system: T2, C. trachomatis L2/434/Bu expressing GFP (CTL2-GFP); assay: microbe, parasite or virus in culture; set-up: C. trachomatis total inclusion area by high-content imaging, normalised to DMSO; settings: Chlamydia trachomatis, HeLa, 28.5 h; total inclusion area; read-out: % of control remaining
T2 construct: L2/434/Bu GFP intracellular growth in HeLa cells
Summary of the method: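 Infected cells treated with library compounds were read for bulk GFP (chlamydial growth) and resorufin fluorescence (host viability), then fixed, Hoechst-stained and imaged. Inclusion area and number from GFP, plus nuclei counts, served as additional growth and viability proxies; MICs derived as previously described.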

Structure (SMILES)	% viability (HeLa)	viability at 28.5 h, 10 µM (in vitro [1]) [%]	also measured
O=C1[C@@H]2CCCN2C(=O)c2ccccc2N1Cc1ccccc1F [CBK282855]	106%	93.9	
O=C(NCCc1ccccc1)[C@@H]1C=CCN1C(=O)C1CC1 [CBK284315]	81.8%	93.6	
C[C@@H]1CN2CCCC2CN1CC1=Cc2ccccc2OC1 (stereo partly shown) [CBK284552]	103%	88.6	
CC(=O)NC[C@H]1CN(c2ccc(-c3cc4ccccc4n3C(=O)OC(C)(C)C)c(F)c2)C(=O)O1 [CBK011849]	82.6%	98.1	
OC1CCn2c1nc1cc(C(F)(F)F)ccc12 (stereo not shown) [CBK115448]	70.8%	80.4	
O=C1CSC(c2ccc(Br)cc2)N1O (stereo not shown) [CBK288521]	97.7%	89	
Cn1c(=O)c2c(-c3ccccc3)n(-c3ccc(C(=O)O)cc3)cc2n(C)c1=O [CBK265040]	98.4%	84	
COc1ccc(-n2ccc(=O)c(Cc3c(Cl)cccc3Cl)c2C)cc1 [CBK019186]	106%	89.2	
O=C(O)c1cccc(S(=O)(=O)N2CCN(C(=O)c3ccccc3)CC2)c1 [CBK275920]	113% and 91.5% and 99.3%		
CCCO/N=C\c1ccc(-n2cnnc2)cc1 [CBK018921]	77.5% and 99.8%		
COc1cc(-c2ccc(OC3CCNCC3)cc2)cc(OC)c1OC [CBK093682]	102%	99	
O=C(O)CCS(=O)(=O)c1nc(-c2ccccc2)cc(C(F)(F)F)n1 [CBK268832]	102%	104	
Cc1ccc(Cn2cc(Br)c(NC(=O)C(=O)O)n2)cc1 [CBK288529]	88.4%	96.9	
COc1cccc(CN2C(=O)[C@H]3CCCN3C(=O)c3ccccc32)c1 [CBK282852]	106%	108	
COc1ccc(C(=O)Nc2ccc(OCC(=O)O)cc2)cc1 [CBK260894]	85.6%	91.4	
CCn1ncc(CN2C[C@@H]3CCCN3C[C@@H]2CCSC)c1C [CBK285446]	110%	109	
COc1ccc(C(NC(=O)Cc2cn3ccsc3n2)C2CC(O)C2)cn1 (stereo not shown) [CBK306910]	97%	82.2	
COc1ccc(CC(=O)N2CCN(Cc3ccco3)C[C@H]2C)cc1 [CBK285483]	104%	96	
CCN(CC)c1ccc2cc(/C(C)=N/O)c(=O)oc2c1 [CBK009063]	108% and 84.7%		
O=C(Nc1cncc(OC2CCNCC2)n1)C1CCC1 [CBK026728T]	94%	81.9	
O=C(NCCc1ccccc1)[C@@H]1C=CCN1C(=O)c1ccco1 [CBK284316]	90%	93	
Nc1nc(Nc2ccccc2)nc(C(F)(F)F)n1 [CBK004712]	72%	89.8	
O=C(CN1C(=O)[C@H]2CCCN2C(=O)c2ccccc21)NC1CC1 [CBK282436]	122% and 91.3%		
CS(=O)(=O)Nc1ccc2[nH]c(=O)c(C(=O)NCc3ccc(Cl)cc3)cc2c1 [CBK017560]	102%	97.9	

Structure (SMILES)	% viability (HeLa)	viability at 28.5 h, 10 µM (in vitro [1]) [%]	also measured
O=C(c1cccnc1)N1C2CCC(C2)[C@H]1COc1ccc(F)cc1 (stereo partly shown) [CBK285268]	87.8%	90.2	
Cc1c(C(=O)O)sc2nc(SCC(=O)NCc3ccccc3)[nH]c(=O)c12 [CBK301214K]	107%		
O=c1cc(CSc2ccccn2)[nH]c2[nH]n(-c3ccccc3)c(=O)c12 [CBK269895]	109%	92.7	
O=C(CN1C(=O)[C@@H]2CCCN2C(=O)c2ccccc21)N1CCOCC1 [CBK286401]	103%	83.9	
CC(C)c1ccc(CN2CCC(Cc3ccccc3)CC2)cc1 [CBK126378]	109%	99.1	
O=[N+]([O-])c1c(-c2cn[nH]c2)n[nH]c1-c1cn[nH]c1 [CBK008388]	93.4%	86.2	
CCOC(=O)c1sc2nccc(Nc3ccccc3)c2c1N [CBK115365]	91.8%	90.8	
O=C(NC1CC1)[C@H]1C=CCN1S(=O)(=O)c1cccc(F)c1 [CBK285485]	98.9%	111	
O=C(Nc1ccccc1OC1CCNCC1)C1CCCO1 (stereo not shown) [CBK045905T]	110%	91.1	
Cc1cc(CN2CC3CCCN3C[C@H]2C)oc1C (stereo partly shown) [CBK285449]	103%	96.9	
CC[C@@H](Cn1nc(-c2ccc(F)c(F)c2)ccc1=O)NC(=O)C1CC1 [CBK282313]	89.3%	90.6	
COc1ccccc1N1C(=O)CC(=O)N=C1S [CBK288517]	89.3%	89.5	
CC(=O)NCc1cccc(-c2cc(C(=O)Nc3ccc4c(c3)OCCO4)cnc2N2CCOCC2)c1 [CBK159355C]	102%	90.1	
CCN(CC)c1ccc(NC(=O)N2CCN(Cc3ccccc3)CC2)cc1 [CBK155645]	90.4%	99.7	
CC(=O)Nc1ccc(S(=O)(=O)Nc2c(C(=O)N3CCN(C)CC3)[nH]c3ccccc23)cc1 [CBK050044]	93.9%	94.9	
COCCn1c(S)nc(=O)c2cc(C)cnc21 [CBK288520]	92.2%	88	
O=C(CC1C(=O)NC(=O)N1Cc1ccccc1)NCc1ccccc1 (stereo not shown) [CBK288083]	94.6%	87.8	
CCOC(=O)N1CCC(NS(=O)(=O)c2ccc3ccccc3c2)CC1 [CBK045452]	93.1% and 96.6%	92	
O=C(Nc1ccccc1OC1CCNCC1)C1CCC1 [CBK045901T]	97.8%	109	
C=CCNC(=O)[C@H]1C=CCN1S(=O)(=O)c1cccc2ccccc12 [CBK282440]	102%	91	
O=C(C1CC1)N1CCC[C@H]1Cn1nc(-c2cccs2)ccc1=O [CBK284250]	80.9%	76.7	
O=C(O)CCS(=O)(=O)c1cccc2cccnc12 [CBK131911]	92.5%	102	
O=C(O)c1ccc(CNCc2c(F)cccc2Cl)cc1 [CBK269496]	82.3%		
CC(C)(C)c1cc(C(=O)NCCN2CCCC2)n(Cc2ccc(Cl)cc2Cl)n1 [CBK107290]	110%	115	

Structure (SMILES)	% viability (HeLa)	viability at 28.5 h, 10 µM (in vitro [1]) [%]	also measured
C=CCn1cc(CN2C[C@@H]3CCCN3C[C@H]2CCSC)c(C)n1 [CBK285420]	106%	87.6	
C[C@H](Cn1nc2c(cc1=O)CCCCC2)NC(=O)c1cccs1 [CBK284545]	85.9%	101	
O=c1[nH]nc(COc2ccc(Br)cc2)o1 [CBK288526]	110% and 86.7%		
COC(=O)c1ccc(-c2cc3ccccc3o2)nc1 [CBK149228]	96.5%		
Cc1cc(NC(=O)c2ccc(Br)o2)nc2c1c(=O)oc1ccccc12 [CBK287440]	85.8% and 119%		
O=c1[nH][nH]c2c1cnc1c(C(F)(F)F)cccc12 [CBK287996]	113% and 84.4%		
Oc1ccc(Nc2ncnc3c2oc2ccccc23)cc1 [CBK287967]	92.3% and 113%		
Cc1cn(C2CC(O)C(CO)O2)c(=S)[nH]c1=O (stereo not shown) [CBK012339]	112% and 90.8%		
O=C(Nc1nc[nH]n1)NC1CCCCC1 [CBK017342]	119% and 94.5%		
C[C@@H]1CN(Cc2ccco2)CCN1C(=O)Cc1ccccc1F [CBK284257]	83.4% and 106%		
O=C(NC[C@H]1CCCN(C(=O)c2ccccn2)C1)c1cccs1 [CBK284262]	105% and 83.9%		
COCCn1cnc2sc(C(=O)NCc3ccccc3OC)c(C)c2c1=O [CBK071862]	95.1% and 64.7%		
CC(C)NC(=O)CN1C(=O)[C@H]2CCCN2C(=O)c2ccccc21 [CBK282437]	112% and 88.6%		
Clc1ccc(COc2nccnc2OC2CCN(CC3CC3)CC2)cc1Cl [CBK083123]	104%		
O=C(O)c1ccc(CNCc2c(F)cccc2Cl)cc1 [CBK269496C]	111%		
O=C(O)c1cc(S(=O)(=O)NCc2ccco2)c(Cl)cc1Cl [CBK113171]	107% and 83.2%		
Cc1cc(CC(=O)N2CCCC3(CCN(C(=O)c4ccoc4)C3)C2)on1 (stereo not shown) [CBK131628]	106% and 82.1%		
COc1ccc(C(=O)Nc2nc3nc(C)cc(C)c3s2)cc1 [CBK287755]	105% and 83%		
O=C(NC1CC1)[C@@H]1C=CCN1C(=O)c1ccc(F)cc1F [CBK284279]	80.5% and 104%		
CC1=CC(C)C(C(=O)O)C(C(=O)N2CCN(C)CC2)C1 (stereo not shown) [CBK027311]	102%		
COc1ccc(CCNC(=O)C2CCCCC2C(=O)O)cc1 (stereo not shown) [CBK262636]	86.3% and 110%		
Brc1ccc(CSc2nc[nH]n2)cc1 [CBK027819]	98.5%		
O=C(N/N=C/c1ccc(Sc2cccc3cccnc23)o1)c1cccc(F)c1 [CBK263263]		87.9	activity at 1 µM [2]: 12%; activity at 5 µM [2]: 3.14%; activity at 10 µM [2]: 0%; viability at 28.5 h, 1 µM (in vitro [3]): 101%; viability at 28.5 h, 5 µM (in vitro [3]): 99.9%; viability at 28.5 h, 10 µM (in vitro [3]): 108%; activity at 1 µM [4]: 21%; activity at 5 µM [4]: 4.03%; activity at 10 µM [4]: 0.368%

From publication PMC12040169 (PLOS Biology, 2025)
